Measurements as given in PubChem BioAssay (NCI).
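Interpolation was linear, between the two tested concentrations surrounding the appropriate level; five concentrations were tested over 48 hours in 96-well plates. At the TGI there is no net growth.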

What was measured:
Assay in all cases: NCI tumour cell line growth inhibition, 48 h
CCRF-CEM leukemia = tested on: CCRF-CEM leukemia
HCT-116 colon = tested on: HCT-116 colon
NCI-H226 lung = tested on: NCI-H226 lung
SK-MEL-5 melanoma = tested on: SK-MEL-5 melanoma
EKVX NSCLC = tested on: EKVX NSCLC
SF-539 CNS = tested on: SF-539 CNS
A549 NSCLC = tested on: A549 NSCLC
HOP-92 NSCLC = tested on: HOP-92 NSCLC
KM20L2 colon = tested on: KM20L2 colon
SK-MEL-2 melanoma = tested on: SK-MEL-2 melanoma
ACHN renal = tested on: ACHN renal
IGROV1 ovarian = tested on: IGROV1 ovarian
U251 CNS = tested on: U251 CNS
SW-620 colon = tested on: SW-620 colon
SNB-19 CNS = tested on: SNB-19 CNS
TK-10 renal = tested on: TK-10 renal
MOLT-4 leukemia = tested on: MOLT-4 leukemia
UO-31 renal = tested on: UO-31 renal
786-0 renal = tested on: 786-0 renal
CAKI-1 renal = tested on: CAKI-1 renal
SNB-75 CNS = tested on: SNB-75 CNS
A498 renal = tested on: A498 renal
HOP-62 NSCLC = tested on: HOP-62 NSCLC
SK-OV-3 ovarian = tested on: SK-OV-3 ovarian
DMS 114 small cell lung = tested on: DMS 114 small cell lung
K-562 leukemia = tested on: K-562 leukemia
SF-295 CNS = tested on: SF-295 CNS
HL-60(TB) leukemia = tested on: HL-60(TB) leukemia
NCI-H23 lung = tested on: NCI-H23 lung
KM12 colon = tested on: KM12 colon
M14 melanoma = tested on: M14 melanoma
NCI-H460 lung = tested on: NCI-H460 lung
RPMI-8226 leukemia = tested on: RPMI-8226 leukemia
HT29 colon = tested on: HT29 colon
NCI-H522 lung = tested on: NCI-H522 lung
RXF 393 renal = tested on: RXF 393 renal
SNB-78 CNS = tested on: SNB-78 CNS
LOX IMVI melanoma = tested on: LOX IMVI melanoma
M19-MEL melanoma = tested on: M19-MEL melanoma
UACC-257 melanoma = tested on: UACC-257 melanoma
OVCAR-5 ovarian = tested on: OVCAR-5 ovarian
DMS 273 small cell lung = tested on: DMS 273 small cell lung
SN12C renal = tested on: SN12C renal
OVCAR-8 ovarian = tested on: OVCAR-8 ovarian
DLD-1 colon = tested on: DLD-1 colon
MALME-3M melanoma = tested on: MALME-3M melanoma
OVCAR-4 ovarian = tested on: OVCAR-4 ovarian
SF-268 CNS = tested on: SF-268 CNS
COLO 205 colon = tested on: COLO 205 colon
UACC-62 melanoma = tested on: UACC-62 melanoma
OVCAR-3 ovarian = tested on: OVCAR-3 ovarian
HCC-2998 colon = tested on: HCC-2998 colon
HCT-15 colon = tested on: HCT-15 colon
SK-MEL-28 melanoma = tested on: SK-MEL-28 melanoma
LXFL 529 NSCLC = tested on: LXFL 529 NSCLC
XF 498 CNS = tested on: XF 498 CNS
SR leukemia = tested on: SR leukemia

Measured: TGI

COC(=O)/C(=N\NC(=O)c1ccccc1O)C(C#N)c1ccccc1 (stereo unspecified)
> 32.8 µM: UACC-62 melanoma
> 48.4 µM: EKVX NSCLC | A498 renal
> 40.7 µM: NCI-H23 lung
46.1 µM: NCI-H226 lung
37.6 µM: UO-31 renal
> 43.3 µM: SF-539 CNS
> 40.6 µM: OVCAR-3 ovarian
34.1 µM: RXF 393 renal
not listed: SR leukemia
> 50 µM: all other assays above

O=S1(=O)OCCOS(=O)(=O)C1(Br)Cc1ccccc1
not listed: CAKI-1 renal | KM12 colon
> 100 µM: all other assays above
